The values below come from patent US10703765B2 (priority 2014, dated 2020).

Counter-ions that a name gives are not always drawn. A value given as a limit tells only on which side of the number the result lay.

The target in one experiment is human σ1 receptor (Homo sapiens, UniProt Q99720). As to the kind of experiment: biochemical.
human σ1 receptor, sequence (Q99720 whole entry): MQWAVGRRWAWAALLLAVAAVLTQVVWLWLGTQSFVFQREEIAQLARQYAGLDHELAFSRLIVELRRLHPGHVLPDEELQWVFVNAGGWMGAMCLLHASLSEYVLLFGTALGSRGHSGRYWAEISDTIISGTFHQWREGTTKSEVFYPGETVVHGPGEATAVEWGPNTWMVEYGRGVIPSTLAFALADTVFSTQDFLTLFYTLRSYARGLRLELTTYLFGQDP
Settings: not given
Type of experiment: binding. Set-up: μ and σ1 dual binding: key to the marks not given beside the values.
`CC1OC2(CCN(CCc3ccccc3)CC2)CN(Cc2cccnc2)C1=O` (centres unmarked) [Example 159, 2-methyl-9-phenethyl-4-(pyridin-3-ylmethyl)-1-oxa-4,9-diazaspiro[5.5]undecan-3-one hydrochloride] came in with a Ki of less than 100 nM.

Regarding `CC(C)C1OC2(CCN(CCc3cccnc3N)CC2)CN(c2ccccc2F)C1=O` (centres unmarked) [Example 238, 9-(2-(2-aminopyridin-3-yl)ethyl)-4-(2-fluorophenyl)-2-isopropyl-1-oxa-4,9-diazaspiro[5.5]undecan-3-one dihydrochloride], the Ki is less than 100 nM.

Turning to `COCCN1CC2(CCN(CCc3ccccc3)CC2)OC2(CC2)C1=O.Cl` [Example 184, 12-(2-methoxyethyl)-8-phenethyl-4-oxa-8,12-diazadispiro[2.1.5.3]tridecan-13-one hydrochloride], the “μ and σ1 dual binding” value is “++”.

In the case of `CC1OC2(CCN(CCC3CCOCC3)CC2)CN(c2ccccc2)C1=O.Cl` (centres unmarked) [Example 131, 2-methyl-4-phenyl-9-(2-(tetrahydro-2H-pyran-4-yl)ethyl)-1-oxa-4,9-dizaspiro[5.5]undecan-3-one hydrochloride], the “μ and σ1 dual binding” value is given as “++”.

The molecule `C[C@H]1OC2(CCN(C[C@@H](O)c3ccccc3)CC2)CN(c2ccccc2)C1=O` [Example 151b, (R)-9-((S)-2-hydroxy-2-phenylethyl)-2-methyl-4-phenyl-1-oxa-4,9-diazaspiro[5.5]undecan-3-one] gave a Ki of less than 500 nM.

Turning to `CC1OC2(CCN(CCc3cccc(NS(=O)(=O)C(C)C)c3)CC2)CN(c2ccccc2)C1=O` (centres unmarked) [Example 261, N-(3-(2-(2-methyl-3-oxo-4-phenyl-1-oxa-4,9-diazaspiro[5.5]undecan-9-yl)ethyl)phenyl)propane-2-sulfonamide hydrochloride], the Ki is less than 500 nM.

The experiment is the same for the next values; noted with them: read-out: μ and σ1 dual binding.
As to `O=C1N(c2ccccc2)CC2(CCN(CCc3ccccc3)CC2)OC12CC2` [Example 225, 8-phenethyl-12-phenyl-4-oxa-8,12-diazadispiro[2.1.5.3]tridecan-13-one], the Ki was less than 100 nM.

As to `CC1OC2(CCN(CCOc3cccnc3)CC2)CN(c2ccccc2)C1=O` (centres unmarked) [Example 145, 2-methyl-4-phenyl-9-(2-(pyridin-3-yloxy)ethyl)-1-oxa-4,9-diazaspiro[5.5]undecan-3-one hydrochloride], the Ki is greater than 500 nM.

As to `O=C1COC2(CCN(CCc3ccccc3)CC2)CN1Cc1ccccn1` [Example 86, 9-phenethyl-4-(pyridin-2-ylmethyl)-1-oxa-4,9-diazaspiro[5.5]undecan-3-one hydrochloride], the Ki was less than 100 nM.

Regarding `CC1OC2(CCN(CCc3cccc(F)c3)CC2)CN(c2ccccc2)C1=O` (centres unmarked) [Example 54, 9-(3-fluorophenethyl)-2-methyl-4-phenyl-1-oxa-4,9-diazaspiro[5.5]undecan-3-one hydrochloride], the Ki is less than 100 nM.

In the case of `O=C1N(c2ncccc2C(F)(F)F)CC2(CCN(CCc3cc(F)ccc3F)CC2)OC12CC2` [Example 343, 8-(2,5-difluorophenethyl)-12-(3-(trifluoromethyl)pyridin-2-yl)-4-oxa-8,12-diazadispiro[2.1.5.3]tridecan-13-one], the Ki was less than 500 nM.

As for `CC1OC2(CCN(CCc3csc(NC(=O)OC(C)(C)C)n3)CC2)CN(c2cnccc2C(F)(F)F)C1=O` (centres unmarked) [Example 121, tert-butyl (4-(2-(2-methyl-3-oxo-4-(4-(trifluoromethyl)pyridin-3-yl)-1-oxa-4,9-diazaspiro[5.5]undecan-9-yl)ethyl)thiazol-2-yl)carbamate], the Ki was greater than 500 nM.

As for `CC1OC2(CCN(CCc3cccnc3N)CC2)CN(c2cnccc2C(F)(F)F)C1=O` (centres unmarked) [Example 240, 9-(2-(2-aminopyridin-3-yl)ethyl)-2-methyl-4-(4-(trifluoromethyl)pyridin-3-yl)-1-oxa-4,9-diazaspiro[5.5]undecan-3-one hydrochloride], the Ki was greater than 500 nM.

With `COc1ccccc1N1CC2(CCN(CCc3ccccc3)CC2)OC(C)C1=O` (centres unmarked) [Example 206, 4-(2-methoxyphenyl)-2-methyl-9-phenethyl-1-oxa-4,9-diazaspiro[5.5]undecan-3-one hydrochloride], the Ki was less than 100 nM.
